Type in all cases: functional, cell-based
Experiment [1] addresses T1, Taste receptor type 2 member 46 (Homo sapiens, UniProt P59540).
T1 sequence (P59540 whole entry): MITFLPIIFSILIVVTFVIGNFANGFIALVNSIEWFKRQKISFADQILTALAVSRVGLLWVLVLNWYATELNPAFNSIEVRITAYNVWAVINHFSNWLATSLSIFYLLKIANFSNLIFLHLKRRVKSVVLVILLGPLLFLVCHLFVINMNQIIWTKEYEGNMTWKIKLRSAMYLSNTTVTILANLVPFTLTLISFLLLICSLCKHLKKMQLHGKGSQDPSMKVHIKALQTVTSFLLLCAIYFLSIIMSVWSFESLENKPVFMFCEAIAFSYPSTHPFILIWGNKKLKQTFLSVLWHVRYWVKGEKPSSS
The experiment is described as follows: Antagonist activity at recombinant human N-terminal rat ST3 receptor-fused TAS2R46 expressed in HEK293T cells co-expressing Galpha16gust44 assessed as inhibition of 30 uM andrographolide-induced intracellular calcium level 100 uM by FLIPR assay. For orientation: Calcium flux is commonly read through the fluorescence of an indicator in the cells.

For experiment [2], the target named is Taste receptor type 2 member 31 (Homo sapiens) (UniProt P59538). Put plainly: Antagonist activity at recombinant human N-terminal rat ST3 receptor-fused TAS2R44 expressed in HEK293T cells co-expressing Galpha16gust44 assessed as inhibition of aristolochic acids-induced intracellular calcium level at 100 uM by FLIPR assay.
Sequence of Taste receptor type 2 member 31 (Homo sapiens) (P59538 whole entry, the tested form may be a part): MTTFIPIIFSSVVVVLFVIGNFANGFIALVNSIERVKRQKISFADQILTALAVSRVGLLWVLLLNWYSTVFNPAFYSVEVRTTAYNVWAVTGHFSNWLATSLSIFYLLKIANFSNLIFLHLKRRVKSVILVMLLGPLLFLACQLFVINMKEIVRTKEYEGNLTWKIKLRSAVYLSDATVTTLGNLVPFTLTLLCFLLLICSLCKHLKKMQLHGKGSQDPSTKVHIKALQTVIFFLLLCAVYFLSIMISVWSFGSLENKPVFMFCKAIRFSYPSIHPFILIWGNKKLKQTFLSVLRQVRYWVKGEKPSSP
For experiment [3], the target named is T2, Taste receptor type 2 member 38 (Homo sapiens) (UniProt P59533).
T2 sequence (whole entry): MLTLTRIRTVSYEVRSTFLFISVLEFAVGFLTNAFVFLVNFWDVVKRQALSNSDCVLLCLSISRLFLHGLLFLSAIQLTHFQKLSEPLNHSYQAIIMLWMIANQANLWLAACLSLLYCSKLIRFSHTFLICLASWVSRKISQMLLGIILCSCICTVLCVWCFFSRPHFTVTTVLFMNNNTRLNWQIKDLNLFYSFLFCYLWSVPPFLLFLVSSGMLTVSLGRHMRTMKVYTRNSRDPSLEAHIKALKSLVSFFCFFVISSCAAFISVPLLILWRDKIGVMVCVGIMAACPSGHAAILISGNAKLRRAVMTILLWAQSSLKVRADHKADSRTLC
The experiment is described as follows: Agonist activity at recombinant human N-terminal rat ST3 receptor-fused TAS2R38 expressed in HEK293T cells co-expressing Galpha16gust44 assessed as effect on intracellular calcium level at 100 uM by FLIPR assay.

The target in experiment [4] is T3, Taste receptor type 2 member 9 (Homo sapiens) (UniProt Q9NYW1).
T3 sequence (whole entry): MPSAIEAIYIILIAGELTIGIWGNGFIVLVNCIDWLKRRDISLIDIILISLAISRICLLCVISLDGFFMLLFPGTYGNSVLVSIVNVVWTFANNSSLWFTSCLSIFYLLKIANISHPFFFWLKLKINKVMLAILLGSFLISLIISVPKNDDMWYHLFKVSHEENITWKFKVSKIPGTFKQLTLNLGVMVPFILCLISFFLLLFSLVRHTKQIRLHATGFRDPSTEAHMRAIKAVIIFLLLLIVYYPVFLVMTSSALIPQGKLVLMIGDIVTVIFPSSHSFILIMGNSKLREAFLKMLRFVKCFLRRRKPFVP
Put plainly: Agonist activity at recombinant human N-terminal rat ST3 receptor-fused TAS2R9 expressed in HEK293T cells co-expressing Galpha16gust44 assessed as effect on intracellular calcium level at 100 uM by FLIPR assay.

Experiment [5] has as its target T4, Taste receptor type 2 member 13 (Homo sapiens) (UniProt Q9NYV9).
T4 sequence (whole entry): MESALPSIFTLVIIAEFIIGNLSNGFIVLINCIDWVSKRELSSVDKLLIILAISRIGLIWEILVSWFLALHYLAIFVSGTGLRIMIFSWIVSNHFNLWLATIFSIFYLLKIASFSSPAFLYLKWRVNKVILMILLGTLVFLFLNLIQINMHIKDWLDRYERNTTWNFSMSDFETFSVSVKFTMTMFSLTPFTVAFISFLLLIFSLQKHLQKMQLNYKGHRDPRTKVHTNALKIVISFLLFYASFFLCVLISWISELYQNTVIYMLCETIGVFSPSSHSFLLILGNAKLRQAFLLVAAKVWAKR
The experiment is described as follows: Agonist activity at recombinant human N-terminal rat ST3 receptor-fused TAS2R13 expressed in HEK293T cells co-expressing Galpha16gust44 assessed as effect on intracellular calcium level at 100 uM by FLIPR assay.

For experiment [6], the target named is T5, Taste receptor type 2 member 39 (Homo sapiens) (UniProt P59534).
T5 sequence (whole entry): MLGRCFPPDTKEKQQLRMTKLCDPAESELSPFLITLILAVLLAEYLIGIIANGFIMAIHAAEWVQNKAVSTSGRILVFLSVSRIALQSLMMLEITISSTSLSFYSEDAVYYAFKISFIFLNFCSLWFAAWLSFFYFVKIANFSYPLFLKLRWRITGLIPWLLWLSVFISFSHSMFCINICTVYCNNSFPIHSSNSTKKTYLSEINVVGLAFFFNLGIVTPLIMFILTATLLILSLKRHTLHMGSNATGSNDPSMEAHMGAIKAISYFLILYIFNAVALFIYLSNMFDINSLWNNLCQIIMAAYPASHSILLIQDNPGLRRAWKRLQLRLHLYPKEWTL
The experiment is described as follows: Agonist activity at recombinant human N-terminal rat ST3 receptor-fused TAS2R39 expressed in HEK293T cells co-expressing Galpha16gust44 assessed as effect on intracellular calcium level at 100 uM by FLIPR assay.

Experiment [7] addresses Taste receptor type 2 member 19 (Homo sapiens) (UniProt P59542). Put plainly: Agonist activity at recombinant human N-terminal rat ST3 receptor-fused TAS2R48 expressed in HEK293T cells co-expressing Galpha16gust44 assessed as effect on intracellular calcium level at 100 uM by FLIPR assay.
Experiment [8] addresses Taste receptor type 2 member 60 (Homo sapiens) (UniProt P59551). The experiment is described as follows: Agonist activity at recombinant human N-terminal rat ST3 receptor-fused TAS2R60 expressed in HEK293T cells co-expressing Galpha16gust44 assessed as effect on intracellular calcium level at 100 uM by FLIPR assay.
The target in experiment [9] is Taste receptor type 2 member 7 (Homo sapiens) (UniProt Q9NYW3). The experiment is described as follows: Activity at recombinant human N-terminal rat ST3 receptor-fused TAS2R7 expressed in HEK293T cells co-expressing Galpha16gust44 assessed as increase in quinine sulfate-induced intracellular calcium level at 100 uM by FLIPR assay.
Sequence of Taste receptor type 2 member 7 (Homo sapiens) (Q9NYW3 whole entry, the tested form may be a part): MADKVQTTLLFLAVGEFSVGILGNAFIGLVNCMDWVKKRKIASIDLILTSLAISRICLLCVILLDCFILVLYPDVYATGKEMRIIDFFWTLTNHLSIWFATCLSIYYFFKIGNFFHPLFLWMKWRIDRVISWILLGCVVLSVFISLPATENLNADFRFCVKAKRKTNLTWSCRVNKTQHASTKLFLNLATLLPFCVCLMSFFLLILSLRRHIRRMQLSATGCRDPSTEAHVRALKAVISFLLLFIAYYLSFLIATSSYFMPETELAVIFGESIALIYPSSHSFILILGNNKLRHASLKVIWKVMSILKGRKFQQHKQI
Experiment [10] has as its target T6, Taste receptor type 2 member 46 (Homo sapiens) (UniProt P59540).
T6 sequence (whole entry): T1 sequence (P59540 whole entry)
Put plainly: Competitive antagonist activity at recombinant human N-terminal rat ST3 receptor-fused TAS2R46 expressed in HEK293T cells co-expressing Galpha16gust44 assessed as inhibition strychnine-induced intracellular calcium level by measuring strychnine induced maximum signal amplitude at 30 uM by FLIPR assay (reference value: 0.42 +/- 0.09 au)).

Activity calls are given as the source filed them. The calls are words filed in the database; no cut-off is given here.

Sequence of Taste receptor type 2 member 19 (Homo sapiens) (P59542 whole entry, the tested form may be a part): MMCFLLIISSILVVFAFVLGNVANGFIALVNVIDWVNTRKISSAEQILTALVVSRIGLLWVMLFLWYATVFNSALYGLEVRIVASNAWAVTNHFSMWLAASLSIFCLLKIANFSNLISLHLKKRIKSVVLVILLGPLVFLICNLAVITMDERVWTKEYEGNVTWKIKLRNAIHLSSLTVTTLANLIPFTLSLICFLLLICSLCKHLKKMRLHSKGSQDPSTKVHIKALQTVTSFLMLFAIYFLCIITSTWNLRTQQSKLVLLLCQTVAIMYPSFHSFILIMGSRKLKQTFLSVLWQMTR
Sequence of Taste receptor type 2 member 60 (Homo sapiens) (P59551 whole entry, the tested form may be a part): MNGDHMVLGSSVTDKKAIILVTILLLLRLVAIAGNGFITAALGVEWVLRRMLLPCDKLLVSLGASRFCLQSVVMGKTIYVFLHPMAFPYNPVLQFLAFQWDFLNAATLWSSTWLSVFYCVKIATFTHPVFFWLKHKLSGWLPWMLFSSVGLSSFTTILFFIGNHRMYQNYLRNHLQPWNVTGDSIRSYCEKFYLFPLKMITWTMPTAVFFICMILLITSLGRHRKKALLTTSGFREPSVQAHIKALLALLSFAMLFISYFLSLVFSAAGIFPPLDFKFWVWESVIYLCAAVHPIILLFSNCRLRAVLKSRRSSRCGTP

`C/C1=C\C[C@H](O)[C@@H](C)C[C@H]2OC(=O)[C@@H](C)C2CC1` (stereo not given in full): the IC50 (in general, the concentration at which inhibition is half-maximal) in [1] was determined as 44.5 µM. In addition, the inhibition result in experiment [2] is “Active”.
Take `C/C1=C\C[C@H](O)/C(C)=C/[C@H]2OC(=O)[C@@H](C)C2CC1` (stereo not given in full): the outcome in experiment [3], in experiment [4], in experiment [5], in [6], in experiment [7] and in experiment [8] was inactive. Further, in experiment [9], the outcome was Active. Further, the Activity in [10] is 0.41 a.u.
